Assay results: US20020137929A1, “1 - (3-heterocyclylphenyl) isothiourea, -isourea, -guanidine and -amidine herbicidal agents” (Intellectual Property Department, BASF Aktiengesellschaft, priority 1998, published 2002)

Key:
[1] = test system: IPOHE (Morningglory, Ivyleaf); assay: Preemergence herbicidal evaluation; format: in vivo, Ipomoea hederacea; settings: rated 4-5 weeks after treatment
Outline: (§1)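 Steps: mix seeds into potting soil; plant atop ~1 inch soil; spray compound in aqueous acetone (~0.0156-0.500 kg/ha equivalent); maintain in greenhouse with watering; rate visually 0-9 versus control at 4-5 weeks.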

MOOVA (Monochoria) = assay: Preemergence weed control under flooded paddy conditions; format: in vivo, Monochoria vaginalis; settings: rated 3-4 weeks after treatment
Outline: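 Visual injury scored 0-9 against control three to four weeks post-treatment, greenhouse-grown. Application: acetone/water (50/50) solutions dosed directly into flood water (1.5-3 cm over silt loam, planted top 0.5 cm), roughly 0.0313 to 0.500 kg/ha active ingredient.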

[2] = test system: TRZAWR (Wheat, Winter, cv Riband); assay: Preemergence herbicidal evaluation; format: in vivo, Triticum aestivum; settings: rated 4-5 weeks after treatment
Outline: as §1

CYPIR (Rice Flatsedge) = assay: Postemergence weed control under flooded paddy conditions; format: in vivo, Cyperus iria; settings: postemergence weeds, 3-4 weeks after treatment
Outline: (§2)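 Injury ratings (0–9 scale covering stand, vigor, malformation, size, chlorosis and overall appearance versus control) were made three to four weeks after treatment. Test material, about 0.0313 to 0.500 kg/ha a.i. in 50/50 v/v aqueous/acetone, was added to flood water 1.5 to 3 cm deep over 3 to 5 cm weeds and 1.5 to 2.5 leaf rice.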

[3] = test system: IPOHE (Morningglory, Ivyleaf); assay: Postemergence herbicidal evaluation; format: in vivo, Ipomoea hederacea; settings: postemergence
Outline: (§3)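 Rate range approx. 0.0156–0.500 kg/ha. Foliar application at 40 psi to ~2-week seedlings; surfactant 0.5% TWEEN 20 in 50/50 acetone/water. Evaluation 4–5 wk post-treatment by 0–9 visual injury score, means of replicate tests.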

[4] = test system: ECHORC (Watergrass (Calif.)); assay: Preemergence weed control under flooded paddy conditions; format: in vivo, Echinochloa oryzoides; settings: rated 3-4 weeks after treatment
Outline: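 Herbicidal effect is scored visually on a 0-9 scale against an untreated control, three to four weeks after compounds are pipetted into the flood water (1.5 to 3 cm deep) over seeds planted in silt loam at 0.5 cm depth. Rates: about 0.0313 to 0.500 kg/ha.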

[5] = test system: CHEAL (Lambsquarters, Common); assay: Preemergence herbicidal evaluation; format: in vivo, Chenopodium album; settings: rated 4-5 weeks after treatment
Outline: as §1

ECHCG (Barnyardgrass) = assay: Preemergence herbicidal evaluation; format: in vivo, Echinochloa crus-galli; settings: rated 4-5 weeks after treatment
Outline: as §1

[6] = test system: TRZAWR (Wheat, Winter, cv Riband); assay: Postemergence herbicidal evaluation; format: in vivo, Triticum aestivum; settings: postemergence
Outline: as §3

ABUTH (Velvetleaf) = assay: Postemergence herbicidal evaluation; format: in vivo, Abutilon theophrasti; settings: postemergence
Outline: as §3

ORYSAT (Rice, Tebonnet) = assay: Preemergence herbicidal evaluation; format: in vivo, Oryza sativa, (L.) Tebonnet; settings: rated 4-5 weeks after treatment
Outline: as §1

[7] = test system: ECHORC (Watergrass (Calif.)); assay: Postemergence weed control under flooded paddy conditions; format: in vivo, Echinochloa oryzoides; settings: postemergence weeds, 3-4 weeks after treatment
Outline: as §2

SETVI (Foxtail, Green) = assay: Preemergence herbicidal evaluation; format: in vivo, Setaria viridis; settings: rated 4-5 weeks after treatment
Outline: as §1

Q: What does the source list for CCOC(=O)CN1C(=O)C(F)SC1=Nc1cc(-n2c(=O)cc(C(F)(F)F)n(C)c2=O)c(F)cc1Cl (stereo not shown) [Compound 11, Ethyl 2-{{2-chloro-5-[3,6-dihydro-3-methyl-2,6-dioxo-4-(trifluoromethyl)-1(2H)-pyrimidinyl]-4-fluorophenyl}imino}-5-fluoro-4-oxo-3-thiazolidineacetate]?
A: IPOHE preemergence herbicidal rating ([1]; rate 0.0156 kg/ha): 2.0; IPOHE preemergence herbicidal rating ([1]; rate 0.0313 kg/ha): 8.0; IPOHE preemergence herbicidal rating ([1]; rate 0.0625 kg/ha): 8.0; IPOHE preemergence herbicidal rating ([1]; rate 0.1250 kg/ha): 9.0; IPOHE preemergence herbicidal rating ([1]; rate 0.2500 kg/ha): 9.0; Herbicidal rating MOOVA (MOOVA (Monochoria); 0.0313 kg/ha): 0.0; Herbicidal rating MOOVA (MOOVA (Monochoria); 0.0625 kg/ha): 1.0; Herbicidal rating MOOVA (MOOVA (Monochoria); 0.1250 kg/ha): 4.0; Herbicidal rating MOOVA (MOOVA (Monochoria); 0.2500 kg/ha): 7.0; TRZAWR preemergence herbicidal rating ([2]; rate 0.0156 kg/ha): 0.0; TRZAWR preemergence herbicidal rating ([2]; rate 0.0313 kg/ha): 0.0; TRZAWR preemergence herbicidal rating ([2]; rate 0.0625 kg/ha): 0.0; TRZAWR preemergence herbicidal rating ([2]; rate 0.1250 kg/ha): 2.0; TRZAWR preemergence herbicidal rating ([2]; rate 0.2500 kg/ha): 5.0; Herbicidal rating CYPIR (CYPIR (Rice Flatsedge); rate 0.0313 kg/ha): 0.0; Herbicidal rating CYPIR (CYPIR (Rice Flatsedge); rate 0.0625 kg/ha): 0.0; Herbicidal rating CYPIR (CYPIR (Rice Flatsedge); rate 0.1250 kg/ha): 0.0; Herbicidal rating CYPIR (CYPIR (Rice Flatsedge); rate 0.2500 kg/ha): 0.0; IPOHE herbicidal rating ([3]; rate 0.0156 kg/ha): 9.0; IPOHE herbicidal rating ([3]; rate 0.0313 kg/ha): 9.0; IPOHE herbicidal rating ([3]; rate 0.0625 kg/ha): 9.0; IPOHE herbicidal rating ([3]; rate 0.1250 kg/ha): 9.0; Herbicidal rating ECHORC ([4]; 0.0313 kg/ha): 1.0; Herbicidal rating ECHORC ([4]; 0.0625 kg/ha): 2.0; Herbicidal rating ECHORC ([4]; 0.1250 kg/ha): 2.0; Herbicidal rating ECHORC ([4]; 0.2500 kg/ha): 3.0; CHEAL preemergence herbicidal rating ([5]; rate 0.0156 kg/ha): 7.5; CHEAL preemergence herbicidal rating ([5]; rate 0.0313 kg/ha): 9.0; CHEAL preemergence herbicidal rating ([5]; rate 0.0625 kg/ha): 9.0; CHEAL preemergence herbicidal rating ([5]; rate 0.1250 kg/ha): 9.0; CHEAL preemergence herbicidal rating ([5]; rate 0.2500 kg/ha): 9.0; ECHCG preemergence herbicidal rating (ECHCG (Barnyardgrass); rate 0.0156 kg/ha): 0.0; ECHCG preemergence herbicidal rating (ECHCG (Barnyardgrass); rate 0.0313 kg/ha): 0.0; ECHCG preemergence herbicidal rating (ECHCG (Barnyardgrass); rate 0.0625 kg/ha): 0.0; ECHCG preemergence herbicidal rating (ECHCG (Barnyardgrass); rate 0.1250 kg/ha): 3.5; ECHCG preemergence herbicidal rating (ECHCG (Barnyardgrass); rate 0.2500 kg/ha): 7.0; TRZAWR herbicidal rating ([6]; rate 0.0156 kg/ha): 4.5; TRZAWR herbicidal rating ([6]; rate 0.0313 kg/ha): 4.5; TRZAWR herbicidal rating ([6]; rate 0.0625 kg/ha): 5.5; TRZAWR herbicidal rating ([6]; rate 0.1250 kg/ha): 6.0; ABUTH herbicidal rating (ABUTH (Velvetleaf); rate 0.0156 kg/ha): 9.0; ABUTH herbicidal rating (ABUTH (Velvetleaf); rate 0.0313 kg/ha): 9.0; ABUTH herbicidal rating (ABUTH (Velvetleaf); rate 0.0625 kg/ha): 9.0; ABUTH herbicidal rating (ABUTH (Velvetleaf); rate 0.1250 kg/ha): 9.0; ORYSAT preemergence herbicidal rating (ORYSAT (Rice, Tebonnet); rate 0.0156 kg/ha): 0.0; ORYSAT preemergence herbicidal rating (ORYSAT (Rice, Tebonnet); rate 0.0313 kg/ha): 0.0; ORYSAT preemergence herbicidal rating (ORYSAT (Rice, Tebonnet); rate 0.0625 kg/ha): 0.0; ORYSAT preemergence herbicidal rating (ORYSAT (Rice, Tebonnet); rate 0.1250 kg/ha): 2.0; ORYSAT preemergence herbicidal rating (ORYSAT (Rice, Tebonnet); rate 0.2500 kg/ha): 4.0; Herbicidal rating ECHORC ([7]; rate 0.0313 kg/ha): 1.0; Herbicidal rating ECHORC ([7]; rate 0.0625 kg/ha): 2.0; Herbicidal rating ECHORC ([7]; rate 0.1250 kg/ha): 2.0; Herbicidal rating ECHORC ([7]; rate 0.2500 kg/ha): 3.0; SETVI preemergence herbicidal rating (SETVI (Foxtail, Green); rate 0.0156 kg/ha): 0.0; SETVI preemergence herbicidal rating (SETVI (Foxtail, Green); rate 0.0313 kg/ha): 1.0; SETVI preemergence herbicidal rating (SETVI (Foxtail, Green); rate 0.0625 kg/ha): 7.0; SETVI preemergence herbicidal rating (SETVI (Foxtail, Green); rate 0.1250 kg/ha): 7.5; SETVI preemergence herbicidal rating (SETVI (Foxtail, Green); rate 0.2500 kg/ha): 9.0
